The source of these data is PMC13342036, “Genomic and Proteolytic Profiling of Lacticaseibacillus sp. PRA205: Insights into PepX-Mediated Bioactive Peptide Metabolism” (Probiotics and Antimicrobial Proteins, 2025).

One experiment deals with PepX. The experiment is described as follows: Effect of protease inhibitors (PMSF, EDTA) on partially purified PepX activity, Gly-Pro-pNA substrate. It is filed as biochemical, Lacticaseibacillus sp. PRA205. The following applies: pH 7.0, 37 °C; for effect on PepX enzymatic activity (decrease): inhibitor 1 mmol/L. The method, then:
PepX activity in the Lcb. casei PRA205 cytoplasmic extract was assessed in a 96-well plate using glycyl-prolyl-p-nitroanilide (Gly-Pro-pNA) as a specific substrate in the absence and presence of inhibitors. The reaction mixture containing 235 µL of 50 mmol/L Tris-Cl buffer (pH 7) and 5 µL of Gly-Pro-pNA substrate (previously dissolved in the same buffer in a concentration of 6.4 mmol/L) was pre-incubated at 37 °C for 5 min, before the addition of 10 µL of cytoplasmic extract. The same reactions were also carried out in the presence of EDTA and PMSF at increasing concentrations of 0.1, 0.5, 1, 5 and 10 mmol/L. Controls contained a buffer instead of an extract. After incubation for 2 h at 37 °C, reactions were stopped with 50 µL of acetic acid (30%) and the release of pNA was measured spectrophotometrically at 405 nm.
The effect of temperature on the PepX activity was determined as described above, modifying the incubation temperature while maintaining a constant pH of 7. The assay was carried out at four temperatures: 5 °C, 35 °C, 40 °C, and 45 °C. The effect of pH on enzyme activity was evaluated at a constant temperature of 37 °C by modifying the pH of the reaction buffer. Tris-HCL buffer (50 mmol/L) was utilized for reactions at pH 4–9, whereas sodium Tris-HCL buffer (50 mmol/L) was used for the assay at pH 7.0. The effect of protease inhibitors was tested by supplementing the reaction mix with EDTA or PMSF at final concentrations of 0, 1, 2, 5, or 10 mmol/L under standard conditions (pH 7.0, 37 °C).

Experiment [1] concerns di-peptidyl-peptidase-IV (DPP-IV). Conditions: cited from earlier work. The method, then:
(§1) Considering the cleavage specificity of PepX and the presence of proline residues in many dairy-derived BPs, the ability of PepX to hydrolyse selected BPs was evaluated. Selected BPs were well-known effective inhibitors of the enzymes ACE and di-peptidyl-peptidase-IV (DPP-IV). […] These two peptides have been identified in several fermented dairy products such as yoghurt and cheeses. The other peptides, ...

A further experiment has as its system ACE. The following applies: cited from earlier work. The procedure: as §1
Experiment [2] relates to blood pressure. Conditions: rats; cited from earlier work.
For experiment [3], the system named is blood pressure. The following applies: humans; cited from earlier work.

Read-outs that look alike come from different tables or passages of the source.

With `O=C(O)CN(CCN(CC(=O)O)CC(=O)O)CC(=O)O` [EDTA], in the experiment on PepX (vs control without inhibitor), the “effect on PepX enzymatic activity (decrease)” value is listed as “no effect”. The “residual PepX activity” value in the experiment on PepX (inhibitor 10 mmol/L, vs control without inhibitor) is 40%.
Consider `O=S(=O)(F)Cc1ccccc1` [PMSF], for which the “effect on PepX enzymatic activity (decrease)” value in the experiment on PepX (vs control without inhibitor) was “more than 40%”. The “effect on PepX enzymatic activity” value in the experiment with PepX (inhibitor 5 mmol/L) and with PepX (inhibitor 10 mmol/L) was “completely abolished” throughout.
Consider APFPE, for which the DPP-IV inhibition entry in experiment [1] is on record as “potent DPP-IV inhibitors”.
Consider IPPL, for which the DPP-IV inhibition entry in experiment [1] was “potent DPP-IV inhibitors”.
With “Ile-Pro-Pro [IPP, anti-hypertensive lactotripeptide derived from β-casein]”, the ACE inhibition result in the experiment with ACE is given as “potent ACE inhibitors”. The “reduction of blood pressure in vivo” value in the experiment on blood pressure [2] and in the experiment with blood pressure [3] was “effective in vivo in reducing blood pressure” throughout.
Regarding LPPT, the DPP-IV inhibition result in experiment [1] is “potent DPP-IV inhibitors”.
For the molecule “Val-Pro-Pro [VPP, anti-hypertensive lactotripeptide derived from β-casein]”, in the experiment with ACE, the ACE inhibition entry was “potent ACE inhibitors”. Also, the “reduction of blood pressure in vivo” value with blood pressure [2] and in the experiment with blood pressure [3] was “effective in vivo in reducing blood pressure” throughout.
